Each structure is given as a SMILES string.

One assay deals with G-361 (Melanoma). Description: Bliss excess, mean over the matrix (fraction); higher = more synergy. The method, boiled down:
(§1)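 Cell lines grown in DMEM/F12 or RPMI with 10% FBS were plated in 1536-well plates and held 24 hours at 37°C, 5% CO2 before 72 hours of exposure to two-drug dose matrices, with DMSO typically at 0.2%. CellTiter-Glo 2.0 luminescence gave viability, which was converted to inhibition. Vehicle wells were set to 0 and blank wells to 1. Combination Emax is the second-highest inhibition in the matrix, and Bliss excess is the observed combination effect minus the expected EA + EB − EA·EB, where EA and EB are the single-agent effects.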

Assay [1] relates to ESO51 (Esophageal Adenocarcinoma). The description is as above. The method, boiled down:
as §1

On to `COc1cc2c(cc1OCCCCCOc1cc3c(cc1OC)C(=O)N1C=C(C)C[C@H]1C=N3)N=C[C@@H]1CC(C)=CN1C2=O` [SG3199] + O=C(c1cc(Cc2n[nH]c(=O)c3ccccc23)ccc1F)N1CCN(C(=O)C2CC2)CC1 [Olaparib] (first compound max 0.001 µM, 7x7, partner max 10 µM), for which the Bliss excess was -0.0294 in the assay with G-361 (Melanoma) and -0.0129 in assay [1].

Regarding `CCN(CCO)CCCOc1ccc2c(Nc3cc(CC(=O)Nc4cccc(F)c4)[nH]n3)ncnc2c1` [AZD2811] + C=CCn1c(=O)c2cnc(Nc3ccc(N4CCN(C)CC4)cc3)nc2n1-c1cccc(C(C)(C)O)n1 [AZD1775] (first compound max 1 µM, partner max 1 µM), the Bliss excess in the assay on G-361 (Melanoma) is -0.0162; in assay [1], -0.0002.

In the case of `CC1(C)CCC(CN2CCN(c3ccc(C(=O)NS(=O)(=O)c4ccc(NCC5CCOCC5)c([N+](=O)[O-])c4)c(Oc4cnc5[nH]ccc5c4)c3)CC2)=C(c2ccc(Cl)cc2)C1` [Venetoclax] + Cn1cnc2c(F)c(Nc3ccc(Br)cc3Cl)c(C(=O)NOCCO)cc21 [Selumetinib] (first compound max 1 µM, 7x7, partner max 3 µM), the Bliss excess with G-361 (Melanoma) is -0.0154; in assay [1] it was -0.0106.

Regarding `CN(C)CCCOc1ccc(-c2ccc3ncc4c(c3c2)n(C2CCOCC2)c(=O)n4C)cn1` [AZD0156] + C[C@@H]1COCCN1C2=NC(=NC(=C2)C3(CC3)[S@](=N)(=O)C)C4=C5C=CNC5=NC=C4 [AZD6738] (first compound max 1 µM, 7x7, partner max 10 µM), the values for the Bliss excess (with G-361 (Melanoma); in assay [1]) were 0.032 and -0.0449, respectively.

As to `COc1nnc2ccc(N3CCC(c4ccc(OCCN5CCN(C)C(=O)[C@H]5C)cc4)CC3)nn12` [AZD5153] + CN(CC[C@H](CSC1=CC=CC=C1)NC2=C(C=C(C=C2)S(=O)(=O)NC(=O)C3=CC=C(C=C3)N4CCC(CC4)[C@H](C5=CC=CC=C5C6=CC=C(C=C6)Cl)O)S(=O)(=O)C(F)(F)F)CCO [AZD4320] (first compound max 1 µM, 7x7, partner max 1 µM), the Bliss excess is 0.0314 in the assay on G-361 (Melanoma) and -0.0079 in assay [1].

With `Cc1c2c(nn1C)CSCc1cc(n(C)n1)CSc1cc(c3ccccc3c1)OCCCc1c(C(=O)O)n(C)c3c-2c(Cl)ccc13` [AZD5991] + C[C@@H]1COCCN1C2=NC(=NC(=C2)C3(CC3)[S@](=N)(=O)C)C4=C5C=CNC5=NC=C4 [AZD6738] (first compound max 1 µM, 7x7, partner max 10 µM), the Bliss excess was determined as 0.0356 in the assay on G-361 (Melanoma) and 0.0124 in assay [1].

Turning to `COc1cccc(OCCCN)c1-c1cc(Nc2cnc(C#N)cn2)n[nH]1` [Prexasertib] + Cc1cc2ncnn2cc1Nc1ncc2c(n1)n(C1CCOCC1)c(=O)n2C [AZD7648] (first compound max 1 µM, 7x7, partner max 10 µM), the Bliss excess in the assay on G-361 (Melanoma) was -0.0052; in assay [1], -0.0081.

Regarding `Cc1c2c(nn1C)CSCc1cc(n(C)n1)CSc1cc(c3ccccc3c1)OCCCc1c(C(=O)O)n(C)c3c-2c(Cl)ccc13` [AZD5991] + C1CN(CCC1(C(=O)N[C@@H](CCO)C2=CC=C(C=C2)Cl)N)C3=NC=NC4=C3C=CN4 [Capivasertib] (first compound max 1 µM, 7x7, partner max 3 µM), the Bliss excess in the assay with G-361 (Melanoma) is -0.0055; in assay [1], -0.0239.

Regarding `COc1cccc(OCCCN)c1-c1cc(Nc2cnc(C#N)cn2)n[nH]1` [Prexasertib] + CN(C)CCCOc1ccc(-c2ccc3ncc4c(c3c2)n(C2CCOCC2)c(=O)n4C)cn1 [AZD0156] (first compound max 1 µM, 7x7, partner max 1 µM), the Bliss excess in the assay with G-361 (Melanoma) was 0.061; in assay [1], -0.0414.

As to `CN(CCO)CC[C@H](CSc1ccccc1)Nc1ccc(S(=O)(=O)NC(=O)c2ccc(N3CCC([C@@H](O)c4ccccc4-c4ccc(Cl)cc4)CC3)cc2)cc1S(=O)(=O)C(F)(F)F` [AZD4320] + C[C@@H](Nc1cc(F)cc(F)c1)c1cc(C(=O)N(C)C)cc2c(=O)cc(N3CCOCC3)oc12 [AZD8186] (first compound max 1 µM, 7x7, partner max 3 µM), the Bliss excess in the assay with G-361 (Melanoma) worked out at 0.027; in assay [1], 0.0996.

`CN(CCO)CC[C@H](CSc1ccccc1)Nc1ccc(S(=O)(=O)NC(=O)c2ccc(N3CCC([C@@H](O)c4ccccc4-c4ccc(Cl)cc4)CC3)cc2)cc1S(=O)(=O)C(F)(F)F` [AZD4320] + C=CCn1c(=O)c2cnc(Nc3ccc(N4CCN(C)CC4)cc3)nc2n1-c1cccc(C(C)(C)O)n1 [AZD1775] (first compound max 1 µM, partner max 1 µM): the values for the Bliss excess (with G-361 (Melanoma); in assay [1]) were 0.0539 and 0.0693, respectively.

For the compound `CN(CCO)CC[C@H](CSc1ccccc1)Nc1ccc(S(=O)(=O)NC(=O)c2ccc(N3CCC([C@@H](O)c4ccccc4-c4ccc(Cl)cc4)CC3)cc2)cc1S(=O)(=O)C(F)(F)F` [AZD4320] + CN(C)CCCOc1ccc(-c2ccc3ncc4c(c3c2)n(C2CCOCC2)c(=O)n4C)cn1 [AZD0156] (first compound max 1 µM, 7x7, partner max 1 µM), the Bliss excess was 0.001 with G-361 (Melanoma) and -0.0095 in assay [1].

`CC1(C)CCC(CN2CCN(c3ccc(C(=O)NS(=O)(=O)c4ccc(NCC5CCOCC5)c([N+](=O)[O-])c4)c(Oc4cnc5[nH]ccc5c4)c3)CC2)=C(c2ccc(Cl)cc2)C1` [Venetoclax] + COc1cc(Nc2ncc3c(n2)-c2ccc(Cl)cc2C(c2c(F)cccc2OC)=NC3)ccc1C(=O)O [Alisertib] (first compound max 1 µM, 7x7, partner max 10 µM): the Bliss excess with G-361 (Melanoma) was 0.0863; in assay [1], -0.0192.

For the compound `Cc1c2c(nn1C)CSCc1cc(n(C)n1)CSc1cc(c3ccccc3c1)OCCCc1c(C(=O)O)n(C)c3c-2c(Cl)ccc13` [AZD5991] + CC1(C)CCC(CN2CCN(c3ccc(C(=O)NS(=O)(=O)c4ccc(NCC5CCOCC5)c([N+](=O)[O-])c4)c(Oc4cnc5[nH]ccc5c4)c3)CC2)=C(c2ccc(Cl)cc2)C1 [Venetoclax] (first compound max 1 µM, 7x7, partner max 1 µM), the Bliss excess was 0.008 in the assay with G-361 (Melanoma) and -0.0008 in assay [1].

As for `Cc1cc2ncnn2cc1Nc1ncc2c(n1)n(C1CCOCC1)c(=O)n2C` [AZD7648] + C[C@@H]1COCCN1C2=NC(=NC(=C2)C3(CC3)[S@](=N)(=O)C)C4=C5C=CNC5=NC=C4 [AZD6738] (first compound max 10 µM, 7x7, partner max 10 µM), the figures for the Bliss excess (in the assay with G-361 (Melanoma); in assay [1]) were 0.0105 and 0.0153, respectively.

For the compound `CC1(C)CCC(CN2CCN(c3ccc(C(=O)NS(=O)(=O)c4ccc(NCC5CCOCC5)c([N+](=O)[O-])c4)c(Oc4cnc5[nH]ccc5c4)c3)CC2)=C(c2ccc(Cl)cc2)C1` [Venetoclax] + C1CN(CCC1(C(=O)N[C@@H](CCO)C2=CC=C(C=C2)Cl)N)C3=NC=NC4=C3C=CN4 [Capivasertib] (first compound max 1 µM, 7x7, partner max 3 µM), the Bliss excess with G-361 (Melanoma) was -0.0618; in assay [1], -0.0379.

Take `CN(C)CCCOc1ccc(-c2ccc3ncc4c(c3c2)n(C2CCOCC2)c(=O)n4C)cn1` [AZD0156] + CCN(CCO)CCCOc1ccc2c(Nc3cc(CC(=O)Nc4cccc(F)c4)[nH]n3)ncnc2c1 [AZD2811] (first compound max 1 µM, 7x7, partner max 1 µM): the results for the Bliss excess (in the assay on G-361 (Melanoma); in assay [1]) were -0.0148 and -0.0147, respectively.

Take `CC1(C)CCC(CN2CCN(c3ccc(C(=O)NS(=O)(=O)c4ccc(NCC5CCOCC5)c([N+](=O)[O-])c4)c(Oc4cnc5[nH]ccc5c4)c3)CC2)=C(c2ccc(Cl)cc2)C1` [Venetoclax] + Cc1cc2ncnn2cc1Nc1ncc2c(n1)n(C1CCOCC1)c(=O)n2C [AZD7648] (first compound max 1 µM, 7x7, partner max 10 µM): the figures for the Bliss excess (with G-361 (Melanoma); in assay [1]) were -0.0147 and -0.0308, respectively.

On to `Cc1cc2ncnn2cc1Nc1ncc2c(n1)n(C1CCOCC1)c(=O)n2C` [AZD7648] + CCN(CCO)CCCOc1ccc2c(Nc3cc(CC(=O)Nc4cccc(F)c4)[nH]n3)ncnc2c1 [AZD2811] (first compound max 10 µM, 7x7, partner max 1 µM), for which the Bliss excess with G-361 (Melanoma) was 0.0453; in assay [1] it was -0.0098.

For the compound `CN(CCO)CC[C@H](CSc1ccccc1)Nc1ccc(S(=O)(=O)NC(=O)c2ccc(N3CCC([C@@H](O)c4ccccc4-c4ccc(Cl)cc4)CC3)cc2)cc1S(=O)(=O)C(F)(F)F` [AZD4320] + CCN(CCO)CCCOc1ccc2c(Nc3cc(CC(=O)Nc4cccc(F)c4)[nH]n3)ncnc2c1 [AZD2811] (first compound max 1 µM, 7x7, partner max 1 µM), the Bliss excess came out at 0.0679 in the assay on G-361 (Melanoma) and 0.0025 in assay [1].

`Cc1cc2ncnn2cc1Nc1ncc2c(n1)n(C1CCOCC1)c(=O)n2C` [AZD7648] + CN(C)CCCOc1ccc(-c2ccc3ncc4c(c3c2)n(C2CCOCC2)c(=O)n4C)cn1 [AZD0156] (first compound max 10 µM, 7x7, partner max 1 µM): the Bliss excess in the assay with G-361 (Melanoma) is 0.0032; in assay [1] it was -0.0151.

As for `Cc1c2c(nn1C)CSCc1cc(n(C)n1)CSc1cc(c3ccccc3c1)OCCCc1c(C(=O)O)n(C)c3c-2c(Cl)ccc13` [AZD5991] + Cc1cc2ncnn2cc1Nc1ncc2c(n1)n(C1CCOCC1)c(=O)n2C [AZD7648] (first compound max 1 µM, 7x7, partner max 10 µM), the Bliss excess in the assay with G-361 (Melanoma) is 0.0031; in assay [1] it was -0.0216.

With `CN(CCO)CC[C@H](CSc1ccccc1)Nc1ccc(S(=O)(=O)NC(=O)c2ccc(N3CCC([C@@H](O)c4ccccc4-c4ccc(Cl)cc4)CC3)cc2)cc1S(=O)(=O)C(F)(F)F` [AZD4320] + C1CN(CCC1(C(=O)N[C@@H](CCO)C2=CC=C(C=C2)Cl)N)C3=NC=NC4=C3C=CN4 [Capivasertib] (first compound max 1 µM, 7x7, partner max 3 µM), the Bliss excess was -0.0244 in the assay with G-361 (Melanoma) and -0.0434 in assay [1].

On to `CC1(C)CCC(CN2CCN(c3ccc(C(=O)NS(=O)(=O)c4ccc(NCC5CCOCC5)c([N+](=O)[O-])c4)c(Oc4cnc5[nH]ccc5c4)c3)CC2)=C(c2ccc(Cl)cc2)C1` [Venetoclax] + C[C@@H]1COCCN1C2=NC(=NC(=C2)C3(CC3)[S@](=N)(=O)C)C4=C5C=CNC5=NC=C4 [AZD6738] (first compound max 1 µM, 7x7, partner max 10 µM), for which the Bliss excess is -0.0132 with G-361 (Melanoma) and -0.0093 in assay [1].
